{"source": "paper PMC11666850", "about": "“Development and evaluation of deuterated [^18F]JHU94620 isotopologues for the non-invasive assessment of the cannabinoid type 2 receptor in brain” (EJNMMI Radiopharmacy and Chemistry, 2024)", "key": {"in vivo": {"experiment": "in vivo", "details": "male, Wistar, rat, iv", "protocol": "Female adult CD-1 mice (25–42 g body weight) were used for radiometabolite analysis of [^18F]JHU94620-d4 (n = 2, 33 and 34 MBq) and [^18F]JHU94620-d8 (n = 3, 26–33 MBq) at 30 min after intravenous tail vein injection of the radiotracer to allow for the comparison of radiometabolite analysis of [^18F]JHU94620 (Moldovan et al. [2016]). The mice were immobilized by short isoflurane narcosis for the injection of the radiotracer in a restrainer and awakened mice were kept in an isolated cage until euthanisation by cervical dislocation under isoflurane narcosis. Male Wistar rats (n = 12, 613–794 g) were used for radiometabolite analysis of [^18F]JHU94620-d8 at different time points (5, 15, 30 and 60 min p.i.) after intravenous tail vein injection of the radiotracer (37–74 MBq) for the correction of the input function in pharmacokinetic analysis. Rats were kept under isoflurane narcosis (gas mixture: 2.5% isoflurane and O2) on a warmed plate until euthanization by decapitation of deep narcotized animals. Plasma samples were obtained by centrifugation with 5500 g of blood samples for 2 min at 4 °C. Resected tissues brain and spleen were kept on ice and minced for 3 × 20 s with adding 0.5 to 1 mL of 0.9% NaCl using a Precellys lysing kit and Minilys homogenizer (Bertin Technologies SAS, Montigny-le-Bretonneux, France).\nThe samples were further processed for subsequent radio-chromatographic analyses. Two consecutive extractions were performed in duplicates for plasma and brain determinations. Plasma, brain and spleen samples were added to the four time the volume of an ice-cold MeOH/H2O mixture (9:1, v/v). […] The activities of supernatants and precipitates were measured in a γ-counter (1480 WIZARD, Perkin Elmer), and the extraction efficiencies were calculated as the ratio of radioactivity in the supernatant to the radioactivity in the original sample (supernatant + precipitate). The supernatants from both extractions were combined, concentrated at 70 °C under argon stream up to a remaining volume of 100 µL, and subsequently analysed by analytical radio-HPLC (method A or B)."}, "hCB2R(D80N)": {"biological_target": "hCB2R(D80N) (Homo sapiens, UniProt P34972, D80N)", "sequence (P34972 whole entry D80N)": "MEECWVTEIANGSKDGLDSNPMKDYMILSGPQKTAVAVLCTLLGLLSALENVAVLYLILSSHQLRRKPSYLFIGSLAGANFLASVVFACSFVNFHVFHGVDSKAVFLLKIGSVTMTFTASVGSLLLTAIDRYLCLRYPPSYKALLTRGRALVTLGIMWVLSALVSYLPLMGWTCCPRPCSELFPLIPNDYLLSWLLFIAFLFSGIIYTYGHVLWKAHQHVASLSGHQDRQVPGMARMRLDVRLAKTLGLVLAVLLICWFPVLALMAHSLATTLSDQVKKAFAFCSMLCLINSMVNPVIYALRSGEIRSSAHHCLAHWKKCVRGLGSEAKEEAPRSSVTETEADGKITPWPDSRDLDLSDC", "details": "female, Wistar, rat, in vivo", "protocol": "The dynamic biodistribution of the radiotracer in the lower body of rats was assessed by small animal PET (Nanoscan, Mediso, Hungary) over 60 min with a subsequently T1-weighted MR. Anaesthetized (2% isoflurane, carrier gas mixture of 40% air and 60% O2) male Wistar rats (body weight: 205–308 g, age: 8–10 weeks, no gender-specific differences were taken into account) were kept during imaging on a heated animal bed to sustain body temperature and were pretreated with vehicle (DMSO:Kolliphore EL:0.9% saline, 1:2:7), JHU94620-d8 (1.5 mg kg^−1 bodyweight) or with GW405833 (5 mg kg^−1 bodyweight) 5 min prior tracer application ([^18F]JHU94620-d8: 7.7–28.2 MBq, 0.4 to 3.2 nmol kg^−1 bodyweight), whereby all injections were administered intravenously. For the evaluation of the hCB2R-specific binding of the radiotracer in the brain, female Wistar rats (n = 6, 253–269 g, age: 8 month) were used carrying stereotactically injected constructs of AAV2/7-CaMKII0.4-intron-hCB2R(D80N) in the right striatum and AAV2/7-CaMKII0.4-intron-3flag-eGFP in the control/contralateral striatum (Vandeputte et al. [2011]). 21–26 MBq corresponding to 0.2 to 2.0 nmol kg^−1 bodyweight radiotracer were injected, whereas in displacement studies 5 mg kg^−1 bodyweight GW405833 was administered 20 min after the radiotracer (each n = 3). The PET scans were performed six months after the stereotactic injections of the AAV2/7-constructs.\nThe acquisitions were performed in normal mode and a coincidence mode 1–5. For subsequent dynamic reconstructions list mode data were sorted into sinograms (12 × 10 s, 6 × 30 s, 5 × 60 s and 10 × 300 s). The frames were reconstructed by Ordered Subset Expectation Maximization applied to 3D (OSEM3D) sinograms corrected for decay and attenuation (4 iterations, 6 subsets and a voxel size of 0.4 mm^3) with the Nucline software v2.01 (Mediso, Budapest, Hungary). Analyses of reconstructed studies were performed with PMOD software (v4.205, PMOD Technologies LLC, Fällanden, Switzerland) and results are expressed in standardized uptake values (SUVs) or normalized to a reference region (SUVr).\nFrom the wildtype rats used for in vivo metabolism studies a hematocrit content of 0.56 ± 0.04 (n = 11) was determined by a 5 min centrifugation of 50 µl blood in a hematocrit centrifuge at 500 g. The free plasma fraction (fp) of [^18F]JHU94620-d8 was determined gravimetrically by ultrafiltration of 100 µl rat plasma samples incubated for 5, 15, 30 and 60 min at 37 °C for 20 min at 14,000 g utilizing Nanosep® centrifugal filters (10 kDa, Pall Laboratory, USA). The brain PET images were co-registered to the PMOD integrated Px Rat (W. Schiffer) T2 MR template and the brain stem, cerebellum, left cortex and left midbrain region from the corresponding brain atlas were used for the determination of the regional TACs. Due to high spillover signals from the hCB2R(D80N) expressing region not all provided atlas regions could be evaluated. Subsequently, the total tissue distribution (VT) was estimated by 2-tissue compartment modelling. For correction of the TACs, an averaged image-derived input function (pIDIF, plasma-to-whole blood ratio corrected), determined in biodistribution studies and the parent fraction derived from metabolism studies in Wistar rats (Watabe fit) and pIDIF (3-exponential fit) were integrated into the modelling process. The binding potential was estimated by a simplified reference tissue modelling (SRTM) using the cerebellar region as reference. The parametric maps were generated with the PXMOD module."}}, "data": [{"smiles": "[2H]C([2H])([18F])C([2H])([2H])C([2H])([2H])C([2H])([2H])n1c(C)c(C)s/c1=N\\C(=O)C1C(C)(C)C1(C)C", "note": "[[^18F]JHU94620-d8]", "values": [{"measurement": "half-life", "setting": "in vivo; metabolic half-life (t1/2) in brain", "value": 53.8, "unit": "min"}, {"measurement": "half-life", "setting": "in vivo; metabolic half-life (t1/2) in plasma", "value": 7.6, "unit": "min"}, {"measurement": "half-life", "setting": "in vivo; metabolic half-life (t1/2) in spleen", "value": 37.3, "unit": "min"}, {"measurement": "TAC peak value, Cerebellum", "setting": "hCB2R(D80N)", "value": "2.8 ± 0.2", "unit": "SUVmean"}, {"measurement": "TAC peak value, Contralateral", "setting": "hCB2R(D80N)", "value": "3.3 ± 0.5", "unit": "SUVmean"}, {"measurement": "Time-to-peak, Cerebellum", "setting": "hCB2R(D80N)", "value": 2.5, "unit": "min"}, {"measurement": "Time-to-peak, Contralateral", "setting": "hCB2R(D80N)", "value": 3.5, "unit": "min"}, {"measurement": "Time-to-peak, hCB2R(D80N)", "setting": "hCB2R(D80N)", "value": 10, "unit": "min"}, {"measurement": "VT of hCB2R(D80N) region, times higher than other investigated brain regions", "setting": "hCB2R(D80N)", "value": "up to 23 times"}, {"measurement": "SUVr60min hCB2R(D80N)-to-Cerebellum", "setting": "hCB2R(D80N); 60 min", "value": "47 ± 4"}, {"measurement": "SUVr60min hCB2R(D80N)-to-Contralateral", "setting": "hCB2R(D80N); 60 min", "value": "10 ± 4"}]}]}
